From US9585888B2, “Reduction of toxicity of multi-targeting antifolates” (Isofol Medical AB, priority 2003, dated 2017)
Like-named read-outs stand apart in the source and are kept apart here.

What was measured:
[1] = test system: experimental adenocarcinoma
Experimental: Eight inbred female Wistar rats were during general anesthesia inoculated in the central liver lobe with 0.1 ml of 1.0 million viable tumor cells of an experimental adenocarcinoma. On day 5 the animals were relaparotomized during general anesthesia, the body weight was recorded and the size of the solitary liver tumor was measured with vernier calipers.
The animals were randomly allocated to two groups. Group 1 received intravenous injections of ALIMTA (pemetrexed) 0.01 mg/kg and group 2 received 0.1 mg/kg of ALIMTA. Both groups received 15 mg/kg of R-5,10-CH2FH4 immediately following the injections of ALIMTA. Therapy was administered through intravenous injections via the tail vein on days 6-8 and days 11-12. On day 13 all animals were sacrificed by an overdose of anesthesia.
The body weights were recorded and the size of the liver tumors was measured. The wet weights of the excised liver tumor and spleen were recorded.

tumor growth = settings: cited from earlier work
[2] = Tissue concentration of methylene-THF in tumor biopsy after i.v. bolus injection of folates; format: in vivo, patients; settings: tumor biopsy at 20 minutes after i.v. bolus injection; compared with leucovorin
Experimental: The level of increase of tissue concentration of methylene-THF after administration of leucovorin and methylene-THF, respectively, has been compared. Patients operated upon due to liver metastases were given a dose of folates. Biopses were taken from the tumor before i.v. bolus injection of leucovorin on methylenetetrahydrofolate. At 20 minutes a new tumor biopsy was taken and the concentration of MTHF was assayed.

TS = TS expression levels after Tomudex intravenous bolus injection in colorectal cancer patients; format: in vivo; settings: multi-targeting antifolate only
Experimental: In this experiment, the effect of a multi-targeting antifolate, i.e. Tomudex (raltitrexed), was shown.
Nine colorectal cancer patients were included in the study, and the expression levels were measured in actin, which is a protein serving as an important structural molecule for the cytoskeletons of many eukaryotic cells.

Nc1nc2[nH]cc(CCc3ccc(C(=O)N[C@@H](CCC(=O)O)C(=O)O)cc3)c2c(=O)[nH]1 [ALIMTA, pemetrexed]
extrahepatic tumor growth ([1]; ALIMTA 0.01 mg/kg i.v. + 15 mg/kg R-5,10-CH2FH4 (group 1), day 13): extrahepatic tumor growth in the abdominal cavity as metastases to the lungs
extrahepatic metastases ([1]; highest Alimta dose (0.1 mg/kg i.v.) + 15 mg/kg R-5,10-CH2FH4 (group 2)): no extrahepatic metastases were recorded

O=c1[nH]cc(F)c(=O)[nH]1 [5-FU, 5-fluorouracil]
tumor growth suppression (tumor growth; 5-FU administered to folate depleted animals 1 hr after folinic acid): approximately 80%
tumor growth suppression (tumor growth; control mice): approximately 50%
effect on tumor growth (tumor growth; folinic acid administered 12 hr before 5-FU): tumor growth stimulation

Nc1nc2c(c(=O)[nH]1)N1CN(c3ccc(C(=O)N[C@@H](CCC(=O)O)C(=O)O)cc3)CC1CN2 (stereo partly drawn) [methylene-THF, 5,10-methylene-tetrahydrofolate]
tissue concentration of methylene-THF in tumor [2]: greater tissue concentration of methylene-THF than leucovorin

Nc1nc2c(c(=O)[nH]1)N(C=O)C(CNc1ccc(C(=O)N[C@@H](CCC(=O)O)C(=O)O)cc1)CN2 (stereo partly drawn) [folinic acid]
effect on tumor growth (tumor growth; folinic acid administered without 5-FU): pronounced growth stimulation

Cc1nc2ccc(CN(C)c3ccc(C(=O)N[C@@H](CCC(=O)O)C(=O)O)s3)cc2c(=O)[nH]1 [Tomudex, raltitrexed]
clinical toxicity (TS; clinical findings): severe toxic effects from the bowel made it impossible to continue the treatment
effect on normal mucosa versus tumor (TS expression levels) (TS; intravenous bolus injection): the normal mucosa is actually more adversely affected than the tumor
